Source: publication PMC4317013 (The Journal of Biological Chemistry, 2014)

Columns and labels:
Jurkat T cells = assay: Internalization of FITC-labeled peptides by Jurkat T cells, FACS; conditions: 5 μM, 1 h, 37 °C, full medium with 10% FBS, washed, fixed with 4% paraformaldehyde, FACSCalibur, compared with untreated cells, Fig. 5A
Description: For the internalization experiment, cells were seeded at 1 × 10^6 cells/ml with 8 ml of full medium into 75-cm^2 flasks and treated with respective 200 nM proteins for 2 h or 5 μM peptides for 1 h.
Human A+-helix peptide ([…]; corresponding to the cleaved N-terminal peptide of hPCI), mouse A+-helix peptide ([…]; corresponding to the cleaved N-terminal peptide of mPCI), and TAT peptide ([…]) ([42]) were synthesized and labeled with FITC (GenScript, Piscataway, NJ). […] Fluorescence-activated cell sorting (FACS) analysis was performed with a FACSCalibur flow cytometer (BD Biosciences). Further data analysis was done with Flowing Software ([43]). For confocal microscopy, the fixed cells were suspended with Vectashield mounting medium containing […] DAPI (Vector Laboratories, Burlingame, CA) and transferred onto slides. Confocal images were taken by a Zeiss LSM-510 Meta confocal microscope system (Zeiss, Jena, Germany). Zeiss LSM Image Browser software was applied for further analysis of images.

urokinase = assay: 30 nM urokinase; conditions: 37 °C, up to 120 min
enteropeptidase = assay: 30 nM enteropeptidase; conditions: 37 °C, up to 120 min
[1] = media from untreated U937 cells (RMPI 1640 medium); conditions: 37 °C, up to 4 h
testisin = assay: 30 nM testisin in testisin buffer (50 mM Tris, 150 mM NaCl, 10 mM CaCl2, pH 7.5); conditions: 37 °C, up to 120 min

cleaved bond (testisin) | Substance | cellular fluorescence signal (FACS) (Jurkat T cells) | not cleaved (urokinase) | not cleaved (enteropeptidase) | not cleaved [1]
– | Fluorescein Isothiocyanate [free FITC] | small shift | – | – | –
Ala18-Val19 | RRHSHSKKKKAKESSVGAVGPPSSKDFA... | – | still recognized by anti-penta-His IgG after 2-h incubation | still recognized by anti-penta-His IgG after 2-h incubation | did not affect the molecular weight of mPCI upon incubation for 1 and 4 h
